From US20090130171A1, “High concentration gentian violet containing medical devices and methods of making same” (priority 2007, published 2009)

Experiments:
[1] = format: physicochemical; conditions: 0.5 %
Method: Compounding Conditions for stable gentian violet:
Barrel Temperatures: • Zone 1-5=170° C. • Zone 6=175° C.,
Compounding Temperature for degraded gentian violet:
Compounding was performed with Sigma Aldrich ACS grade gentian violet, lot 016K3691. HPLC analysis was performed by cutting and measuring 1 cm segments of each formulation (n=3) using the method described in Examples I and II.
The chromatograms in FIGS. 5-10 show the stable gentian violet followed by the degraded gentian violet, at 588 nm, 253 nm, and 280 nm. The degradation peaks from the 217° C. sample are evident as the new peaks at 253 and 280 nm wavelengths. The chromatogram of the low processing temperature was identical to that of the Gentian Violet raw material.

[2] = Decolorization of GV: photo-oxidation with H2O2 under UV light (Protocol 1); format: physicochemical; conditions: 0.1% GV in 3% H2O2 and agar stain
Method: (§1) Protocol 1. Photo-oxidation of GV with H2O2 • 1.1. 0.15 g GV (0.1% w/v) was dissolved in 150 ml 3% H2O2. The solution was exposed to UV light (Bio-lab hood) for 2 hours. 5 ml of solution was extracted out, in increments of 5 mins. • 1.2. 10 μl of 0.1% GV in DI water was spiked onto a plated agar plate. After staining of the agar plate (evaporation of most of the water from the spiked drop), H2O2 was pipetted onto the stain in increments of 50 μl every 5 mins for 2 hours, under the UV light. Protocol 2. Oxidation of GV by activation of H2O2 with Ag • 2.1. 10.6 mg of nano-particle Silver was mixed into 40 ml 3% H2O2 with constant stirring. 0.1% GV in water was added at various increments (10 μl-1 ml) until purple color persisted. Molar concentration ratios (GV:Ag) were calculated to determine the molar ratio where GV is no longer oxidized. • 2.2 10 μl of 0.1% GV in DI water was spiked onto a plated agar plate. After staining of the agar plate (evaporation of most of the water from the spiked drop), 0.009 g of Ag was applied to the surface of the stain and 100 μl of H2O2 was pipette onto the Ag. Protocol 3. Oxidation of GV by activation of H2O2 with Vitamin C 1% Vitamin C (w/v) was dissolved in 100 ml 3% H2O2. 7 g of TRIS buffer was also dissolved in the H2O2. 0.1% GV in water was added at increments of 10 μl until the purple color persisted.

[3] = Decolorization of GV: activation of H2O2 with nano-particle silver (Protocol 2); format: physicochemical
Method: as §1

[4] = Decolorization of GV: activation of H2O2 with Vitamin C (Protocol 3); format: physicochemical; conditions: 1% Vitamin C in 3% H2O2, TRIS, pH 6-7, first 10 μl of 0.1% GV
Method: as §1

Q: What does the source list for `CN(C)c1ccc(C(=C2C=CC(=[N+](C)C)C=C2)c2ccc(N(C)C)cc2)cc1` [gentian violet]?
A: processing temperature at which extruded gentian violet degrades [1]: 217 °C; color change of GV [2]: No color change; color change of GV solution ([3]; 0.1% GV pipetted into Ag + 3% H2O2 solution): fade to a faint yellow color; color change of GV stain on agar ([3]; 10 μl 0.1% GV stain, Ag + 100 μl H2O2): turn to a faint yellow color after 10 mins; color of solution after GV addition [4]: remained purple
